Reference: US7074789B2, “Kinase inhibitors” (Amgen Inc., priority 1999, dated 2006)

Key:
Assay type in all cases: biochemical
Lck = molecular target: T1, Lck (Homo sapiens, UniProt P06239); test: Kinase inhibition assay (33P transfer), Lck; conditions: Table 3; for IC50: read-out: Lck-1
T1 construct: Kinases are expressed as either kinase domains or full length constructs; made in house
Outline: (§1)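 Activity was read as 33P incorporation, counted by liquid scintillation after a 0.5% phosphoric acid wash, into poly(Glu,Tyr) 4:1 or poly(Arg,Ser) 3:1 substrates coated on plates. Enzymes were tagged (GST or polyHis) kinase domains or full-length proteins from bacterial or insect-cell expression, sometimes with regulatory polypeptides.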

Lyn = molecular target: T2, Lyn (Homo sapiens, UniProt P07948); test: Kinase inhibition assay (33P transfer), Lyn; conditions: Table 6, Lyn-1 kinase inhibition class
T2 construct: Kinases are expressed as either kinase domains or full length constructs; made in house
T2 sequence (P07948 whole entry, species assumed, the tested form may be a part): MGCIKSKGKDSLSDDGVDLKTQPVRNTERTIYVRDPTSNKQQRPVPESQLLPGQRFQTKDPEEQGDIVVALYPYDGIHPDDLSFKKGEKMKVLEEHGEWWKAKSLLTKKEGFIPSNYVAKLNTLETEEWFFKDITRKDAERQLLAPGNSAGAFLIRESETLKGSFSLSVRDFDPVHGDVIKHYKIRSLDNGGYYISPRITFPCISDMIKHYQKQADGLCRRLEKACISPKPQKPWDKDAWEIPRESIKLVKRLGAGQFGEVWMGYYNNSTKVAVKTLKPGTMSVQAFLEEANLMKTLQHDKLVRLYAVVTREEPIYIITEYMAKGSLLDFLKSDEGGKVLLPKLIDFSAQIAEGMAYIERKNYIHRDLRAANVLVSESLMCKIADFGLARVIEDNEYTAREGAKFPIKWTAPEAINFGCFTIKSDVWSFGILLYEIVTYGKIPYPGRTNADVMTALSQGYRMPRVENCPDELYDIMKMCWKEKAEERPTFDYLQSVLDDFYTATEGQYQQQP
Outline: (§2)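 Radiometric format: recombinant tagged kinase (catalytic domain or whole protein, sometimes combined with regulatory polypeptides) phosphorylates immobilised poly(Glu,Tyr) 4:1 or poly(Arg,Ser) 3:1 using [33P]ATP. Wells are washed in 0.5% phosphoric acid, then counted. IC50 is taken where substrate labelling falls by half.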

Src = molecular target: T3, Src (Homo sapiens, UniProt P12931); test: Kinase inhibition assay (33P transfer), Src; conditions: Table 6, Src-1 kinase inhibition class
T3 construct: Kinases are expressed as either kinase domains or full length constructs; made in house
Outline: as §2

Itk = molecular target: T4, Itk (Homo sapiens, UniProt Q08881); test: Kinase inhibition assay (33P transfer), Itk; conditions: Table 3; for IC50: read-out: Itk-1
T4 construct: Kinases are expressed as either kinase domains or full length constructs; made in house
T4 sequence (Q08881 1-620): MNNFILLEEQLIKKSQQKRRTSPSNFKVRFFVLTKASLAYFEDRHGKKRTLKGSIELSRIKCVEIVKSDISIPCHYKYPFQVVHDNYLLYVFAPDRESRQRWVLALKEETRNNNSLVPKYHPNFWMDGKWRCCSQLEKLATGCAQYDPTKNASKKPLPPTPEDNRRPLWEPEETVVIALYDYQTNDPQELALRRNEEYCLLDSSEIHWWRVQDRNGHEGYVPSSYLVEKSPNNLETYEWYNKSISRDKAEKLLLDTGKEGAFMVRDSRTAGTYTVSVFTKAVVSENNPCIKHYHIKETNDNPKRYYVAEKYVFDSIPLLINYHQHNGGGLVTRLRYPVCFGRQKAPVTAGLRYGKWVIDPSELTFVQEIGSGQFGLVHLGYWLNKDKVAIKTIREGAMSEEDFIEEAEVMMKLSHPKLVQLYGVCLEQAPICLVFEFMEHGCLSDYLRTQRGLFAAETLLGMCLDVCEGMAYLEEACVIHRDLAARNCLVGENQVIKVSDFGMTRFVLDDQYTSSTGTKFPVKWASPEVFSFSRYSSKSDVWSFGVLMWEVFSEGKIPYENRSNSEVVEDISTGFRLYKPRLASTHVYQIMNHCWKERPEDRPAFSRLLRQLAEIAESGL
Outline: as §2

EGFR = molecular target: T5, EGFR (Homo sapiens, UniProt P00533); test: Kinase inhibition assay (33P transfer), EGFR; conditions: Table 2, kinase inhibition class; for IC50: read-out: EGFR-1
T5 construct: Kinases are expressed as either kinase domains or full length constructs; made in house
Outline: as §2

Kdr = molecular target: T6, Kdr (Homo sapiens, UniProt P35968); test: Kinase inhibition assay (33P transfer), Kdr; conditions: Table 3; for IC50: read-out: KDR-1
T6 construct: Kinases are expressed as either kinase domains or full length constructs; made in house
Outline: as §1

Tek = molecular target: T7, Tek (Homo sapiens, UniProt Q02763); test: Kinase inhibition assay (33P transfer), Tek; conditions: read-out: Tek-1
T7 construct: Kinases are expressed as either kinase domains or full length constructs; made in house
T7 sequence (Q02763 23-1124, species assumed): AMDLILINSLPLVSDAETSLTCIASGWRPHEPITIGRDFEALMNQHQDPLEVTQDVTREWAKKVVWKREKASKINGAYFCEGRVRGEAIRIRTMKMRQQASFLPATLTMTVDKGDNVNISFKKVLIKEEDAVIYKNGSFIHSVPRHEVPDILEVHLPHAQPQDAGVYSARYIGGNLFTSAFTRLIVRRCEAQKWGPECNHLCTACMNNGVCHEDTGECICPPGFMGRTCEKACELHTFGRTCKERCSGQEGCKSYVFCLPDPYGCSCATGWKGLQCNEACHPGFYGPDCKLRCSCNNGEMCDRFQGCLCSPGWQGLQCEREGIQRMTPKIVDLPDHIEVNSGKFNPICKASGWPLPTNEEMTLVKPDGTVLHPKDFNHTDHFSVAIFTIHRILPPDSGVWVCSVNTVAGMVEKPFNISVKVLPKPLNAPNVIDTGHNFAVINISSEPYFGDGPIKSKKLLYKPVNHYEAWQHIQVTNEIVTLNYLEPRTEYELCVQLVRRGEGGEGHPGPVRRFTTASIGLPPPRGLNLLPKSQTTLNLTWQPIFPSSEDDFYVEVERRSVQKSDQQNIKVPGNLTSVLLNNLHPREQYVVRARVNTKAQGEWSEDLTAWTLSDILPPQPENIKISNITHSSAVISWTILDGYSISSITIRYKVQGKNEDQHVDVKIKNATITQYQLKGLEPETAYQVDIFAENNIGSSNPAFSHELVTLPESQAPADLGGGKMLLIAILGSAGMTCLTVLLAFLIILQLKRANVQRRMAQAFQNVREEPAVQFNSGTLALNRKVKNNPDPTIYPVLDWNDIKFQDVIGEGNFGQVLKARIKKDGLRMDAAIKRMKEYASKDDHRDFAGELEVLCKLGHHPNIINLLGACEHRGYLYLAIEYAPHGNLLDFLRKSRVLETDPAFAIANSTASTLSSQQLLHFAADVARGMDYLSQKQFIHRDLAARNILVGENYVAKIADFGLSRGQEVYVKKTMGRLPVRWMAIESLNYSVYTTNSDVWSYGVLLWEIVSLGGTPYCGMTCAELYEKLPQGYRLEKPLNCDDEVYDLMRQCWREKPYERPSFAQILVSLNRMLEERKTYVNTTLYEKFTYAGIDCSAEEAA
Outline: as §2

c-Met = molecular target: T8, c-Met (Homo sapiens, UniProt P08581); test: Kinase inhibition assay (33P transfer), c-Met; conditions: Table 2, kinase inhibition class; for IC50: read-out: Met-1
T8 construct: Kinases are expressed as either kinase domains or full length constructs; made in house
T8 sequence (P08581 25-1390): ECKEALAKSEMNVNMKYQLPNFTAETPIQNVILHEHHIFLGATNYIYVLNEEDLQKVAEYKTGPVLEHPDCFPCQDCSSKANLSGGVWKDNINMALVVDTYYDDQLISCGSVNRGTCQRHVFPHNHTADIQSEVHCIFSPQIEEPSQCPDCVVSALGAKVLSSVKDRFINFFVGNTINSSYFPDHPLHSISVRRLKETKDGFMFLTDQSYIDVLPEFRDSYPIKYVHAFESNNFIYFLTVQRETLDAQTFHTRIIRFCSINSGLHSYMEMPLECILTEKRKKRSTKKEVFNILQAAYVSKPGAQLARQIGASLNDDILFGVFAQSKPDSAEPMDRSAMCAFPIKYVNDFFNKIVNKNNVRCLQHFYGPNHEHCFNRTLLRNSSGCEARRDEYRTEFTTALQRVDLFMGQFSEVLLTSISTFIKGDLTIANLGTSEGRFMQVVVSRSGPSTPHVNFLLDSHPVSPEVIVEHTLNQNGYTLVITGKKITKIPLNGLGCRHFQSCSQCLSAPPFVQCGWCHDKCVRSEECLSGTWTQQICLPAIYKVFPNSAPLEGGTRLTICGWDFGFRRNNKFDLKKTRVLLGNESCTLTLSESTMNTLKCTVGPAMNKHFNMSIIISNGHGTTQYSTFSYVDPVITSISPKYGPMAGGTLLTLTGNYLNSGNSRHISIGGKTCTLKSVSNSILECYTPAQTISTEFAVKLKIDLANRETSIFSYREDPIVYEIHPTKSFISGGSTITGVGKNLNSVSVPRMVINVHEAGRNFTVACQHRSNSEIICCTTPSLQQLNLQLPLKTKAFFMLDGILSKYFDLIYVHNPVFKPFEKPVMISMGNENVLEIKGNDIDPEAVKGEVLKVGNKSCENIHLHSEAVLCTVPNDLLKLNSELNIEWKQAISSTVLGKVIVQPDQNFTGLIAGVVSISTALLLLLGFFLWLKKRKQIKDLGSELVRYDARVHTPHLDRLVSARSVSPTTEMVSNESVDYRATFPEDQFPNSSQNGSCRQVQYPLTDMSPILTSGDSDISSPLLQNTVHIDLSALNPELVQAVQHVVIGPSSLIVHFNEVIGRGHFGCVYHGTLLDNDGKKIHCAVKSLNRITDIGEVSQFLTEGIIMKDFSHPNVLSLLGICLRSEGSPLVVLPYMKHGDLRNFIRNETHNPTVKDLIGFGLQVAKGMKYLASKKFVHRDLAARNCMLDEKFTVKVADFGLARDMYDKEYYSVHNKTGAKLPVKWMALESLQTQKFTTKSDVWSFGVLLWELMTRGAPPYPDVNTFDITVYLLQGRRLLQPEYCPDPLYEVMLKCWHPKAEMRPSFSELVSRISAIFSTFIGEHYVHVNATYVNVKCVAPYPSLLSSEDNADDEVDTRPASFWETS
Outline: as §2

IGFR-1 = molecular target: T9, IGFR-1 (Homo sapiens, UniProt P08069); test: Kinase inhibition assay (33P transfer), IGFR-1; conditions: Table 2, kinase inhibition class
T9 construct: Kinases are expressed as either kinase domains or full length constructs; made in house

PDGFRB = molecular target: T10, PDGFRB (Homo sapiens, UniProt P09619); test: Kinase inhibition assay (33P transfer), PDGFRB; conditions: read-out: PDGFRB-1
T10 construct: Kinases are expressed as either kinase domains or full length constructs; made in house

ErbB4 = molecular target: T11, ErbB4 (Homo sapiens, UniProt Q15303); test: Kinase inhibition assay (33P transfer), ErbB4; conditions: read-out: ErbB4-1
T11 construct: Kinases are expressed as either kinase domains or full length constructs; made in house
T11 sequence (Q15303 26-1308, species assumed): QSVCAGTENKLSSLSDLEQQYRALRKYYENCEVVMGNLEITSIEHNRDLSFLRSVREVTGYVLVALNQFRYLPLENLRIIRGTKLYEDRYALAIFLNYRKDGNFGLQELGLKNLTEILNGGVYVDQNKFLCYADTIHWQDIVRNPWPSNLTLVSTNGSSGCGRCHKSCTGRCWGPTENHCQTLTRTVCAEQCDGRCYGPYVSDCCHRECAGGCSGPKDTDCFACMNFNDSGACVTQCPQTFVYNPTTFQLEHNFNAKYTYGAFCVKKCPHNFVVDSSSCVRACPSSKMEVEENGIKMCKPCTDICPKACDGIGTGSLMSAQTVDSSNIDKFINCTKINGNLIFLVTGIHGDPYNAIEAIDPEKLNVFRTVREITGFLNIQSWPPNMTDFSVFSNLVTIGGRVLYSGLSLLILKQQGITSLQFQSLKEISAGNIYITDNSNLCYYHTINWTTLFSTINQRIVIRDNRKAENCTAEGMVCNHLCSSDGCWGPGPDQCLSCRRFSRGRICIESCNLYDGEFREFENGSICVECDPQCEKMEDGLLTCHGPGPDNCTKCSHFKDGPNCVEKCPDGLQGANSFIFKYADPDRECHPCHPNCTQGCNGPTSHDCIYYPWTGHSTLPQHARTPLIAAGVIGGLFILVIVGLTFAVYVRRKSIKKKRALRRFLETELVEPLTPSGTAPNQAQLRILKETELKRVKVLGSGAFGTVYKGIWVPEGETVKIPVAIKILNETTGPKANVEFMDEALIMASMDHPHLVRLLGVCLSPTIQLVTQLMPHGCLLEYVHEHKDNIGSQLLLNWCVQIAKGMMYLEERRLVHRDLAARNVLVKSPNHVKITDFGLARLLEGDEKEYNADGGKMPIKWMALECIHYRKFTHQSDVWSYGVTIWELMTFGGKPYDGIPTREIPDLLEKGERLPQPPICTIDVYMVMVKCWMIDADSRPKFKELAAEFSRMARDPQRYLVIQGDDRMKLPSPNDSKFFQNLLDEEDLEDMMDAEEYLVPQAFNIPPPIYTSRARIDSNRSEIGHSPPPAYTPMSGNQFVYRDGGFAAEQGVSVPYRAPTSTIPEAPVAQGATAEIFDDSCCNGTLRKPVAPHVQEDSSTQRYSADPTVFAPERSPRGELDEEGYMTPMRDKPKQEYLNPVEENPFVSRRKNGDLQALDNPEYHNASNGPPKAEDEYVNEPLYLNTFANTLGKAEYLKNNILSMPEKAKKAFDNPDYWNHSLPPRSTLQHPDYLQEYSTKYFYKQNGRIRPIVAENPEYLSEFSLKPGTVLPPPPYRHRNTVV

FGFR1 = molecular target: T12, FGFR1 (Homo sapiens, UniProt P11362); test: Kinase inhibition assay (33P transfer), FGFR1; conditions: read-out: FGFR1-1
T12 construct: Kinases are expressed as either kinase domains or full length constructs; made in house
T12 sequence (P11362 22-822, species assumed): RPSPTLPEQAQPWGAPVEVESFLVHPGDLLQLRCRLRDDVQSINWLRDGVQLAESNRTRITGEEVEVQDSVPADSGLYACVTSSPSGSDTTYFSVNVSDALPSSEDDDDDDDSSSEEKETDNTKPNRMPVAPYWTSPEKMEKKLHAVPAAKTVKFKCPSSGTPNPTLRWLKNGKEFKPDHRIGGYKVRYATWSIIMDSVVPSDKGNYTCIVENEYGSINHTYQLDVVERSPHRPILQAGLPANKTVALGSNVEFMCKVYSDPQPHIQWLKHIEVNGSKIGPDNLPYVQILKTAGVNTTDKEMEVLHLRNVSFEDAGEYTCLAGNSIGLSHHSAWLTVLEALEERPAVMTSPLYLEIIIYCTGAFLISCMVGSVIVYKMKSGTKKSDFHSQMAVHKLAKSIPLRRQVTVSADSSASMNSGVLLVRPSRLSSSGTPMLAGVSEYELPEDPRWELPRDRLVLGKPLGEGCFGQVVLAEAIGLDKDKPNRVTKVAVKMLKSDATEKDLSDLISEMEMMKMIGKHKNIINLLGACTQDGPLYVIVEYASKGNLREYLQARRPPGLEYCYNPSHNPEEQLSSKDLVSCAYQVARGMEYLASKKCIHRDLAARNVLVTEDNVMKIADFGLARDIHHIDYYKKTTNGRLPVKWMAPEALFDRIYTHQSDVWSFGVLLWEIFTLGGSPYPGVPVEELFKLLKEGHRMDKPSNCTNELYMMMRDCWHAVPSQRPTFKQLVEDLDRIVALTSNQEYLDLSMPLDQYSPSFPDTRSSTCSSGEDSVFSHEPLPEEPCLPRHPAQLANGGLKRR

Ret-1 = molecular target: T13, Ret-1 (Homo sapiens, UniProt P07949); test: Kinase inhibition assay (33P transfer), Ret; conditions: Table 6, Ret-1 kinase inhibition class
T13 construct: Kinases are expressed as either kinase domains or full length constructs; made in house

| Structure (SMILES) | IC50 (Lck) | IC50 (Lyn) | IC50 (Src) | IC50 (Itk) | IC50 (EGFR) | IC50 (Kdr) | IC50 (Tek) | IC50 (c-Met) | IC50 (IGFR-1) | IC50 (PDGFRB) | IC50 (ErbB4) | IC50 (FGFR1) | IC50 (Ret-1) | also measured |
| --- | --- | --- | --- | --- | --- | --- | --- | --- | --- | --- | --- | --- | --- | --- |
| COc1cc(Nc2ncnc(Nc3ccc(C)c(N)c3)n2)cc(OC)c1OC [Compound 935] | 1.05 to 6.28 µM | < 1.05 µM | < 1.05 µM | 6.28 to 9.15 µM | < 1.05 µM | < 1050 nM | > 11.8 µM | > 11.8 µM | 1.05 to 6.28 µM | < 1.05 µM | 1.05 to 6.28 µM | 1.05 to 6.28 µM | – | – |
| COc1ccc(Nc2ncnc(Nc3cc(OC)c(OC)c(OC)c3)n2)cc1OC [Compound 36] | 0.968 to 5.81 µM | > 10.9 µM | > 10.9 µM | > 10.9 µM | 8.47 to 10.9 µM | < 968 nM | 8.47 to 10.9 µM | > 10.9 µM | > 10.9 µM | < 0.968 µM | – | > 10.9 µM | > 10.9 µM | – |
| COc1cc(Nc2ncnc(Nc3cc(OC)c(OC)c(OC)c3)n2)cc(OC)n1 [Compound 253] | 8.45 to 10.9 µM | > 10.9 µM | < 0.965 µM | > 10.9 µM | 5.79 to 8.45 µM | 965 to 5790 nM | – | > 10.9 µM | > 10.9 µM | – | – | – | – | – |
| CCOc1ccc(Nc2ncnc(Nc3ccc(OCc4ccccc4)cc3)n2)cc1OCC [Compound 170] | > 9.84 µM | > 9.84 µM | > 9.84 µM | > 9.84 µM | 0.874 to 5.25 µM | 874 to 5250 nM | 5.25 to 7.65 µM | 5.25 to 7.65 µM | > 9.84 µM | > 9.84 µM | 7.65 to 9.84 µM | > 9.84 µM | – | – |
| COc1ccc(Nc2ncnc(Nc3cccc(C)c3)n2)cc1OC [Compound 108] | 10.4 to 13.3 µM | < 1.19 µM | 1.19 to 7.11 µM | > 13.3 µM | < 1.19 µM | 7110 to 10400 nM | > 13.3 µM | > 13.3 µM | 7.11 to 10.4 µM | 1.19 to 7.11 µM | 10.4 to 13.3 µM | 1.19 to 7.11 µM | – | – |
| COc1cc(Nc2ncnc(Nc3ccc(Br)c(Cl)c3)n2)cc(OC)c1OC [Compound 936] | 0.857 to 5.14 µM | < 0.857 µM | < 0.857 µM | 5.14 to 7.5 µM | < 0.857 µM | 857 to 5140 nM | > 9.64 µM | > 9.64 µM | < 0.857 µM | < 0.857 µM | 0.857 to 5.14 µM | 0.857 to 5.14 µM | – | – |
| COc1cc(Nc2ncnc(-n3c(N)nc4ccccc43)n2)ccc1OCCn1ccnn1 [Compound 324] | > 10.1 µM | > 10.1 µM | > 10.1 µM | 0.9 to 5.4 µM | > 10.1 µM | < 900 nM | 0.9 to 5.4 µM | > 10.1 µM | < 0.9 µM | > 10.1 µM | – | < 0.9 µM | < 0.9 µM | – |
| COc1cc(Nc2ncnc(N3CCc4ccccc43)n2)cc(OC)c1OC [Compound 184] | 1.05 to 6.33 µM | 1.05 to 6.33 µM | 1.05 to 6.33 µM | > 11.9 µM | > 11.9 µM | < 1050 nM | > 11.9 µM | 9.22 to 11.9 µM | > 11.9 µM | < 1.05 µM | – | 6.33 to 9.22 µM | > 11.9 µM | – |
| COc1ccc(Nc2ncnc(Nc3ccc(N(C)C)cc3)n2)cc1OC [Compound 114] | > 12.3 µM | – | – | > 12.3 µM | > 12.3 µM | < 1090 nM | > 12.3 µM | > 12.3 µM | 6.55 to 9.55 µM | > 12.3 µM | – | > 12.3 µM | 1.09 to 6.55 µM | – |
| COCCOc1ccc(Nc2ncnc(Nc3cc(-c4ccco4)n[nH]3)n2)cc1OCCOC [Compound 328] | 0.856 to 5.13 µM | 0.856 to 5.13 µM | 0.856 to 5.13 µM | 0.856 to 5.13 µM | 0.856 to 5.13 µM | < 856 nM | 5.13 to 7.49 µM | < 0.856 µM | < 0.856 µM | 0.856 to 5.13 µM | – | 0.856 to 5.13 µM | 0.856 to 5.13 µM | – |
| Cc1cccc(Nc2ncnc(Nc3cccc(Br)c3)n2)c1 [Compound 109] | > 12.6 µM | – | – | > 12.6 µM | < 1.12 µM | 6740 to 9830 nM | > 12.6 µM | > 12.6 µM | > 12.6 µM | > 12.6 µM | > 12.6 µM | – | – | – |
| C=CCN(c1ccc(Cl)cc1)c1ncnc(Nc2cc(OC)c(OC)c(OC)c2)n1 [Compound 972] | 0.935 to 5.61 µM | < 0.935 µM | 0.935 to 5.61 µM | > 10.5 µM | < 0.935 µM | < 935 nM | 8.18 to 10.5 µM | 0.935 to 5.61 µM | 5.61 to 8.18 µM | < 0.935 µM | 0.935 to 5.61 µM | 0.935 to 5.61 µM | – | – |
| COc1ccc(Nc2ncnc(Nc3cc(OC)c(OC)c(OC)c3)n2)cn1 [Compound 28] | – | – | – | – | – | – | – | – | – | – | – | – | – | Lck-1 (Lck): B (B>0.4 and <2.4 ug/mL); Lyn-1 (Lyn): B (B>0.4 and <2.4 ug/mL); Src-1 (Src): B (B>0.4 and <2.4 ug/mL); Itk-1 (Itk): E (E>4.5 ug/mL); EGFR-1 (EGFR): B (B>0.4 and <2.4 ug/mL); KDR-1 (Kdr): A (A<0.4 ug/mL); Met-1 (c-Met): E (E>4.5 ug/mL); IGFR-1 (IGFR-1): B (B>0.4 and <2.4 ug/mL) |
| COc1cc(Nc2ncnc(N3CCCCC3)n2)cc(OC)c1OC [Compound 207] | 10.1 to 13 µM | – | – | > 13 µM | > 13 µM | 1160 to 6950 nM | > 13 µM | > 13 µM | > 13 µM | > 13 µM | – | > 13 µM | – | – |
